Target: T1, Full length human recombinant HDAC6 protein (Homo sapiens, UniProt Q9UBN7)
T1 construct: made in house
T1 sequence (Q9UBN7 1-1215): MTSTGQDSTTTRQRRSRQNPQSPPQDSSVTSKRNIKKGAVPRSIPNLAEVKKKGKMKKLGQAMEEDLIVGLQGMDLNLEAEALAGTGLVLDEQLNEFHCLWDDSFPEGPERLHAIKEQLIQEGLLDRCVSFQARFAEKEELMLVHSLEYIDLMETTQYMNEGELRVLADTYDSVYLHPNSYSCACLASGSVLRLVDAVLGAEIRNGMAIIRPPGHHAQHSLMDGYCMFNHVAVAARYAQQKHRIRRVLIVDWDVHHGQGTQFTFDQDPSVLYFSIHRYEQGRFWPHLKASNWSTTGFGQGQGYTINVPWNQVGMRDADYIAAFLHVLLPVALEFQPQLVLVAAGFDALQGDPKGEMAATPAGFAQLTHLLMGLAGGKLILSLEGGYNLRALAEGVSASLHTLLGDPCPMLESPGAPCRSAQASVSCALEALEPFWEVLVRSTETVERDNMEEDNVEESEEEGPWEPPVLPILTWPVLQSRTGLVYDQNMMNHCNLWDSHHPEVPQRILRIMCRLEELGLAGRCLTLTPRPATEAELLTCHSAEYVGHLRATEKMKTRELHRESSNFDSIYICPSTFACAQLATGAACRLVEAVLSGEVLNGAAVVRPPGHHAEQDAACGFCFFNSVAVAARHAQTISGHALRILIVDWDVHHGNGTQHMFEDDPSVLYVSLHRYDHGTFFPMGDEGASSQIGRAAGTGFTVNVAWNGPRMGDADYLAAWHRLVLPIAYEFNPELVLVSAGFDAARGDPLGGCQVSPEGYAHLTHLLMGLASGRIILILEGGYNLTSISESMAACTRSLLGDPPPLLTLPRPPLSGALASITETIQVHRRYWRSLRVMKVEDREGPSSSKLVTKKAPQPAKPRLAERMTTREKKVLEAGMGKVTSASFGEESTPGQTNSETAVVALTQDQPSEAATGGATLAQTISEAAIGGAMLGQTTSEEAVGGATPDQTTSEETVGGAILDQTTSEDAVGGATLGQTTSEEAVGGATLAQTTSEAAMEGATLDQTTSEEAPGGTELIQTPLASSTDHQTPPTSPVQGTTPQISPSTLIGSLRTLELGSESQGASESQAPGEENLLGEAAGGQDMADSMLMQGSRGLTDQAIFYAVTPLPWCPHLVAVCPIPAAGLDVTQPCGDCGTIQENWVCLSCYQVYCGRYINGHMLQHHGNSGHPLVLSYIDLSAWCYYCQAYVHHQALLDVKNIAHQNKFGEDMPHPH
Assay: In vitro histone deacetylase assay: enzymatic HDAC6 electrophoretic mobility shift assay
Type: biochemical
Details: peptide substrate RHKK(Ac)-NH2 2 μM, enzyme 1 nM, 25° C., 12 concentrations; read-out: HDAC6 activity range (IC50)
Procedure: The enzymatic HDAC6 assay was performed using electrophoretic mobility shift assay. Full length human recombinant HDAC6 protein was expressed in baculoviral system and purified by affinity chromatography. The enzymatic reactions were assembled in 384 well plates in a total volume of 25 μL in a reaction buffer composing: 100 mM HEPES, pH 7.5, 25 mM KCl, 0.1% bovine serum albumin, 0.01% Triton X-100, 1% DMSO (from compounds) 2 μM of the fluorescently labeled peptide substrate and enzyme. The enzyme was added at a final concentration of 1 nM. The peptide substrate RHKK(Ac)-NH2 was used. The compounds were tested at 12 concentrations spaced by 3× dilution intervals. Negative control samples (0%-inhibition in the absence of inhibitor) and positive control samples (100%-inhibition) were assembled in replicates of four in each assay plate. The reactions were incubated at 25° C. and quenched by the addition of 45 μL of termination buffer (100 mM HEPES, pH 7.5, 0.01% Triton X-100, 0.05% SDS).
The terminated assay plates were analyzed on LabChip® 3000 microfluidic electrophoresis instrument (Perkin Elmer/Caliper Life Sciences). The fluorescence intensity of the electrophoretically separated de-acetylated product and substrate peptide was measured. Activity in each sample was determined as the product to sum ratio (PSR): P/(S+P), where P is the peak height of the product peptide and S is the peak height of the substrate peptide. Percent inhibition (Pinh) is determined using the following equation:
Pinh=(PSR0%−PSRinh)/(PSR0%−PSR100%)*100, where PSRinh is the product sum ratio in the presence of inhibitor, PSR0% is the average product sum ration in the absence of inhibitor and PSR100% is the average product sum ratio in 100%-inhibition control samples. The IC50 values of inhibitors were determined by fitting the %-inhibition curves with 4 parameter dose-response model using XLfit 4 software.
As set forth in Table-7, below, IC50 values are defined as follows: IC50≤0.01 μM (+++); IC50>0.01 μM and ≤0.05 μM (++); IC50>0.05 μM (+).

| Structure (SMILES) | IC50 [nM] |
| --- | --- |
| CC(=O)N1CC[C@]2(Cc3ccc(C(=O)NO)cc3C2)C1 [Compound I-28, (R)-1′-acetyl-N-hydroxy-1,3-dihydrospiro[indene-2,3′-pyrrolidine]-5-carboxamide] | 10 to 50 |
| O=C(NO)c1ccc2c(c1)C[C@]1(CCN(C(=O)c3ccccc3)C1)C2 [Compound I-31, (S)-1′-benzoyl-N-hydroxy-1,3-dihydrospiro[indene-2,3′-pyrrolidine]-5-carboxamide] | ≤ 10 |
| CN1CCC[C@]2(Cc3ccc(C(=O)NO)cc3C2)C1=O [Compound I-32, (R)—N-hydroxy-1′-methyl-2′-oxo-1,3-dihydrospiro[indene-2,3′-piperidine]-5-carboxamide] | 10 to 50 |
| CN1CCC[C@@]2(Cc3ccc(C(=O)NO)cc3C2)C1=O [Compound I-33, (S)—N-hydroxy-1′-methyl-2′-oxo-1,3-dihydrospiro[indene-2,3′-piperidine]-5-carboxamide] | 10 to 50 |
| O=C(NO)c1ccc2c(c1)C[C@]1(CCCN(Cc3ccccc3)C1=O)C2 [Compound I-35, (S)-1′-benzyl-N-hydroxy-2′-oxo-1,3-dihydrospiro[indene-2,3′-piperidine]-5-carboxamide] | 10 to 50 |
| O=C(NO)c1ccc2c(c1)C[C@@]1(CCCN(c3ccccc3)C1=O)C2 [Compound I-36, (R)—N-hydroxy-2′-oxo-1′-phenyl-1,3-dihydrospiro[indene-2,3′-piperidine]-5-carboxamide] | ≤ 10 |

Next, values leading:

| IC50 [nM] | Structure (SMILES) |
| --- | --- |
| 10 to 50 | CC(=O)N1CC[C@@]2(Cc3ccc(C(=O)NO)cc3C2)C1 [Compound I-29, (S)-1′-acetyl-N-hydroxy-1,3-dihydrospiro[indene-2,3′-pyrrolidine]-5-carboxamide] |
| ≤ 10 | O=C(NO)c1ccc2c(c1)C[C@@]1(CCN(C(=O)c3ccccc3)C1)C2 [Compound I-30, (R)-1′-benzoyl-N-hydroxy-1,3-dihydrospiro[indene-2,3′-pyrrolidine]-5-carboxamide] |
| ≤ 10 | O=C(NO)c1ccc2c(c1)C[C@@]1(CCCN(Cc3ccccc3)C1=O)C2 [Compound I-34, (R)-1′-benzyl-N-hydroxy-2′-oxo-1,3-dihydrospiro[indene-2,3′-piperidine]-5-carboxamide] |
| 10 to 50 | O=C(NO)c1ccc2c(c1)C[C@]1(CCCN(c3ccccc3)C1=O)C2 [Compound I-37, (S)—N-hydroxy-2′-oxo-1′-phenyl-1,3-dihydrospiro[indene-2,3′-piperidine]-5-carboxamide] |

From patent US12213969B2, “2-spiro-5- and 6-hydroxamic acid indanes as HDAC inhibitors” (Valo Health, Inc., priority 2016, dated 2025)
